A value given as a limit tells only on which side of the number the result lay.

For assay [1], the target named is T1, p110δ/p85α (PI3K p110 delta) (Homo sapiens, UniProt O00329).
T1 construct: purchased Upstate Group, Millipore; Dundee, UK
As to the kind of experiment: PI3K isoform inhibition assay (fluorescence polarization PIP3 displacement; alternatively radiometric), p110 delta. In kind it is biochemical. To be noted: for IC50: PI3K p110 delta binding IC50; for IC50 p110 alpha/IC50 p110 delta: delta/alpha selectivity: ratio of p110 alpha IC50 to p110 delta IC50. How it is done:
PI3K Isoform Inhibition Assay (p110 Alpha, Beta, Gamma, Delta: α, β, γ, δ)
PI3K enzymatic activity was assayed by measuring the amount of product phosphatidylinositol 3,4,5-phosphate (PIP3) formed from substrate 4,5 phosphatidylinositol 4,5-phosphate (PIP2) using a fluorescence polarization displacement assay. The decrease in fluorescence polarization of a fluorescent PIP3 probe is measured as it is displaced from a PIP3-binding protein GRP-1 detector by PI3K-catalyzed product. […] The kinase reactions were initiated by the addition of 40 ng/mL p110α/p85α, 300 ng/mL p110β/p85α, 40 ng/mL p110γ, or 40 ng/mL p110δ/p85α (Upstate Group, Millipore; Dundee, UK), and 10 μM PIP2 (Echelon Biosciences) to the wells. […] After 60 minutes of incubation at room temperature to allow equilibration of labeled and unlabeled PIP3 binding, the parallel and perpendicular components of the fluorescence emissions from each sample were measured at an excitation wavelength of 530 nm and an emission wavelength of 590 nm using an Envision fluorescent plate reader with a rhodamine filter (PerkinElmer Life and Analytical Sciences; Wellesley, Mass.). The assay is capable of detecting 0.1-2.0 μM PIP3 product. The IC50 values were obtained by fitting the dose-dependent inhibition data to a 4-parameter equation using Assay Explorer software (MDL, San Ramon, Calif.).
The Formula I compound was serially diluted in 100% DMSO. The kinase reaction was incubated for 1 h at room temperature, and the reaction was terminated by the addition of PBS. IC50 values were subsequently determined using sigmoidal dose-response curve fit (variable slope).
HT baculovirus expression system (GIBCO/BRL), and then purified for use in biochemical assays. The four Class I PI 3-kinases are cloned into baculovirus vectors as follows: […]
(In fluorescence polarisation assays a small probe gives low polarisation when free and higher when bound to something large.)

The test system of assay [2] is CD69 positive cells that are also CD20 positive, stimulated by anti-IgM, in human whole blood. The experiment in a line: CD69 whole blood assay (human whole blood, anti-IgM stimulated). Format: cell-based. The settings on record: concentration decreasing by 50% the percent CD69 positive of CD20 positive cells stimulated by anti-IgM, 20 hours, read-out: IC50 in the CD69 Whole Blood Assay. On the procedure: Human blood is obtained from healthy volunteers, with the following restrictions: 1 week drug-free, non-smokers. Blood (approximately 20 mls to test 8 compounds) is collected by venipuncture into Vacutainer tubes with sodium heparin.
Solutions of Formula I compounds at 1000 or 2000 μM in PBS (20×), are diluted by three-fold serial dilutions in 10% DMSO in PBS for a nine point dose-response curve. An aliquot of 5.5 μl of each compound is added in duplicate to a 2 ml 96-well plate; 5.5 μl of 10% DMSO in PBS is added as control and no-stimulus wells. Human whole blood—HWB (100 μl) is added to each well. After mixing the plates are incubated at 37° C., 5% CO2, 100% humidity for 30 minutes. Goat F(ab′)2 anti-human IgM (10 μl of a […] solution, 50 μg/ml final) is added to each well (except the no-stimulus wells) with mixing and the plates are incubated for an additional 20 hours. At the end of the 20 hour incubation, samples are incubated with florescent labeled antibodies for 30 minutes, at 37° C., 5% CO2, 100% humidity. Include induced control, unstained and single stains for compensation adjustments and initial voltage settings. Samples are then lysed with Pharmingen Lyse according to the manufacturer's instructions. Samples are then transferred to a 96 well plate suitable to be run on the AMS 96 well system on the BD Calibur FACs machine. Data acquired and Mean Fluorescence Intensity values were obtained using Cell Quest Software. Results are initially analyzed by FACS analysis software (Flow Jo). […] The IC50 values are calculated by Activityl)ase using Xlfit version 3, equation 201.

T1 sequence (O00329 whole entry): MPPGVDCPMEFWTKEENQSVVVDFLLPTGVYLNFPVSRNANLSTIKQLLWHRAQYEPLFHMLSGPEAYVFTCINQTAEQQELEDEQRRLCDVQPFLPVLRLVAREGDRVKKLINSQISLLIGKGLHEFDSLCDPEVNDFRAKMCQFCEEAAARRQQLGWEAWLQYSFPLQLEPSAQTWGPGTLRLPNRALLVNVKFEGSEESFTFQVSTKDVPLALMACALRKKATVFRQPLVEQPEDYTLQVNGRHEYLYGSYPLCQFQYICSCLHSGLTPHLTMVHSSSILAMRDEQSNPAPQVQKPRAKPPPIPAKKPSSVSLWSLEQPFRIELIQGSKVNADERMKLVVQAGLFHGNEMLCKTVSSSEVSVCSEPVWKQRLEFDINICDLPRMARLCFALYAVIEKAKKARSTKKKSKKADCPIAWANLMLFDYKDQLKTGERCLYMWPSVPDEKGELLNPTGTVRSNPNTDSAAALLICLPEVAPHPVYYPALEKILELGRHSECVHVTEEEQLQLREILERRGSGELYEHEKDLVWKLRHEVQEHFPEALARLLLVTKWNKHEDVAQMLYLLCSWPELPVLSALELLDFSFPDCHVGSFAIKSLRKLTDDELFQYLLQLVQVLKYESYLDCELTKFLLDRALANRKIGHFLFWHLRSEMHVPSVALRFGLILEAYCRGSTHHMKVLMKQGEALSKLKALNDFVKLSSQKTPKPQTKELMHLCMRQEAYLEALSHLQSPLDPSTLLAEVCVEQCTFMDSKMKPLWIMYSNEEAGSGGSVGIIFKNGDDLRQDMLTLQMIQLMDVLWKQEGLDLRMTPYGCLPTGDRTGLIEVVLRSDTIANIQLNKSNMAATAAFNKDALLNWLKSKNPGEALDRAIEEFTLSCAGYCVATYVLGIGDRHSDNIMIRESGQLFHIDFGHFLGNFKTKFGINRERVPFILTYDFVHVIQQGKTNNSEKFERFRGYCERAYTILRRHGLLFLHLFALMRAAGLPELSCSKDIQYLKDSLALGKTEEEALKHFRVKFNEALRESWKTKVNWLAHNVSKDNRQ
T1 sequence (P27986 whole entry partner): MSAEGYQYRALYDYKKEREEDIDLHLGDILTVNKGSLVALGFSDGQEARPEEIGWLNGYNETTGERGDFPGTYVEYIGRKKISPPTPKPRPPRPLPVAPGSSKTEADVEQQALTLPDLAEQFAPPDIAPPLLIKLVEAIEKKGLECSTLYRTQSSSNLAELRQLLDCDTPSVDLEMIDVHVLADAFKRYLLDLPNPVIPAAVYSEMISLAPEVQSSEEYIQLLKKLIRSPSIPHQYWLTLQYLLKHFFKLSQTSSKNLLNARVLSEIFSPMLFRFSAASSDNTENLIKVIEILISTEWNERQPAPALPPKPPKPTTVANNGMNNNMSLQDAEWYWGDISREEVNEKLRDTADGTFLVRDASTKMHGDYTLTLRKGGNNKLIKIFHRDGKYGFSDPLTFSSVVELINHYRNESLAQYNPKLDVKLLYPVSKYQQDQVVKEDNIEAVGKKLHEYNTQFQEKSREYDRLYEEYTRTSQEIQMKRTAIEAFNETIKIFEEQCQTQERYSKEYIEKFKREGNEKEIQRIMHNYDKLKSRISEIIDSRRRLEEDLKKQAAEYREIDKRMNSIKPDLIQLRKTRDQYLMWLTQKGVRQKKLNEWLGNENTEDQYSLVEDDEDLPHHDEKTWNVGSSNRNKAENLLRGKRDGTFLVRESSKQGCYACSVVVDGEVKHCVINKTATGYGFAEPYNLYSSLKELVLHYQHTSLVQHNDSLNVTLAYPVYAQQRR

As for `c1cc(-c2nc(N3CCOCC3)c3sc(CN4CCC(N5CCOCC5)CC4)cc3n2)c2ccncc2c1` [Example 101, 4-(1-((2-(isoquinolin-5-yl)-4-morpholinothieno[3,2-d]pyrimidin-6-yl)methyl)piperidin-4-yl)morpholine], in assay [1], the IC50 was 101 nM and the “IC50 p110 alpha/IC50 p110 delta” value was found to be 53.
With `Cc1c(CN2CCN(C(C)(C)C(N)=O)CC2)sc2c(N3CCOCC3)nc(-c3cncc4[nH]ccc34)nc12` [Example 112, 2-methyl-2-(4-((7-methyl-4-morpholino-2-(1H-pyrrolo[2,3-c]pyridin-4-yl)thieno[3,2-d]pyrimidin-6-yl)methyl)piperazin-1-yl)propanamide], in assay [1], the IC50 turned out to be 1.8 nM and the “IC50 p110 alpha/IC50 p110 delta” value amounted to 29.
With `Cn1c(CN2CCC(C(C)(C)O)CC2)nc2c(N3CCOCC3)nc(-c3cnc(N)c4ccccc34)nc21` [Example 115, 2-(1-((2-(1-aminoisoquinolin-4-yl)-9-methyl-6-morpholino-9H-purin-8-yl)methyl)piperidin-4-yl)propan-2-ol], in assay [1], the IC50 is 7.2 nM and the “IC50 p110 alpha/IC50 p110 delta” value came to 34.
Turning to `CC(C)(C(N)=O)N1CCN(Cc2nc3c(N4CCOCC4)nc(-c4cncc5[nH]ccc45)nc3s2)CC1` [Example 131, 2-methyl-2-(4-((7-morpholino-5-(1H-pyrrolo[2,3-c]pyridin-4-yl)thiazolo[5,4-d]pyrimidin-2-yl)methyl)piperazin-1-yl)propanamide], in assay [1], the IC50 turned out to be 1.3 nM and the “IC50 p110 alpha/IC50 p110 delta” value is reported as 32.
As for `CN(C)C1CCN(Cc2cc3nc(-n4ccc5cnccc54)nc(N4CCOCC4)c3s2)CC1` [Example 149, N,N-dimethyl-1-((4-morpholino-2-(1H-pyrrolo[3,2-c]pyridin-1-yl)thieno[3,2-d]pyrimidin-6-yl)methyl)piperidin-4-amine], in assay [1], the IC50 stood at 6.9 nM and the “IC50 p110 alpha/IC50 p110 delta” value worked out at 30.
For the molecule `Cn1c(CN2CCC(C(C)(C)O)CC2)nc2c(N3CCOCC3)nc(-c3n[nH]c4ccccc34)nc21` [Example 162, 2-(1-((2-(1H-indazol-3-yl)-9-methyl-6-morpholino-9H-purin-8-yl)methyl)piperidin-4-yl)propan-2-ol], in assay [1], the half-inhibitory concentration (IC50) stood at 14.6 nM and the “IC50 p110 alpha/IC50 p110 delta” value is 191.
Regarding `COC(C)(C)C1CCN(Cc2nc3c(N4CCOCC4)nc(-c4c(C)oc5ccccc45)nc3n2C)CC1` [Example 200, 4-(8-((4-(2-methoxypropan-2-yl)piperidin-1-yl)methyl)-9-methyl-2-(2-methylbenzofuran-3-yl)-9H-purin-6-yl)morpholine], in assay [1], the 50% inhibitory concentration (IC50) is 22.2 nM and the “IC50 p110 alpha/IC50 p110 delta” value worked out at 54.
For `Cc1oc2ccccc2c1-c1nc(N2CCOCC2)c2nc(CN3CCN(C(C)(C)C(N)=O)CC3)sc2n1` [Example 211, 2-methyl-2-(4-((5-(2-methylbenzofuran-3-yl)-7-morpholinothiazolo[5,4-d]pyrimidin-2-yl)methyl)piperazin-1-yl)propanamide], in that order: 9.7 nM and greater than 300.
As for `CC(C)(C(N)=O)N1CCN(Cc2nc3nc(-c4cccc5nccn45)nc(N4CCOCC4)c3s2)CC1` [Example 248, 2-(4-((5-(imidazo[1,2-a]pyridin-5-yl)-7-morpholinothiazolo[4,5-d]pyrimidin-2-yl)methyl)piperazin-1-yl)-2-methylpropanamide], in assay [1], the 50% inhibitory concentration (IC50) amounted to 42.9 nM and the “IC50 p110 alpha/IC50 p110 delta” value was 35.
As to `CCc1nc2ccccc2n1-c1nc(N2CCOCC2)c2nc(CN3CCC(C4COC4)CC3)n(C)c2n1` [Example 314, 4-(2-(2-ethyl-1H-benzo[d]imidazol-1-yl)-9-methyl-8-((4-(oxetan-3-yl)piperidin-1-yl)methyl)-9H-purin-6-yl)morpholine], the concentration for half-maximal inhibition (IC50) in assay [2] amounted to 44.1 nM.
Still for that read-out and setting: the figure for `CCc1nc2ccccc2n1-c1nc(N2CCOCC2)c2nc(CN3CC([C@@H](O)C(C)C)C3)n(C)c2n1` [Example 388, (S)-1-(1-((2-(2-ethyl-1H-benzo[d]imidazol-1-yl)-9-methyl-6-morpholino-9H-purin-8-yl)methyl)azetidin-3-yl)-2-methylpropan-1-ol] is 51.1 nM.
`CCc1nc2ccccc2n1-c1nc(N2CCOCC2)c2nc(CN3CCN(C(C)(C)CO)CC3)[nH]c2n1` [Example 489, 2-(4-((2-(2-ethyl-1H-benzo[d]imidazol-1-yl)-6-morpholino-9H-purin-8-yl)methyl)piperazin-1-yl)-2-methylpropan-1-ol]: in assay [1], the IC50 was 1.37 nM and the “IC50 p110 alpha/IC50 p110 delta” value was 157.
Consider `Cn1c(CN2CC(C3CCOCC3)C2)nc2c(N3CCOCC3)nc(-n3c(C4CC4)nc4ccccc43)nc21` [Example 499, 4-(2-(2-cyclopropyl-1H-benzo[d]imidazol-1-yl)-9-methyl-8-((3-(tetrahydro-2H-pyran-4-yl)azetidin-1-yl)methyl)-9H-purin-6-yl)morpholine], for which, in assay [1], the IC50 is 6.3 nM and the “IC50 p110 alpha/IC50 p110 delta” value was found to be 75.
Consider `CCc1nc2ccccc2n1-c1nc(N2CCOCC2)c2nc(CC3CN(C4CCS(=O)(=O)CC4)C3)n(C)c2n1` [Example 501, 4-(2-(2-ethyl-1H-benzo[d]imidazol-1-yl)-9-methyl-8-((1-(tetrahydro-2H-(1,1-dioxo)-thiopyran-4-yl)azetidin-3-yl)methyl)-9H-purin-6-yl)morpholine], for which, in assay [1], the IC50 was 0.589 nM and the “IC50 p110 alpha/IC50 p110 delta” value turned out to be 140.
In the case of `CCc1nc2ccccc2n1-c1nc(N2CCOCC2)c2nc(CN3C[C@@H]4C[C@H]3CN4C(C)(C)CO)n(C)c2n1` [Example 521, 2-((1S,4S)-5-((2-(2-ethyl-1H-benzo[d]imidazol-1-yl)-9-methyl-6-morpholino-9H-purin-8-yl)methyl)-2,5-diazabicyclo[2.2.1]heptan-2-yl)-2-methylpropan-1-ol], in assay [1], the IC50 stood at 1.45 nM and the “IC50 p110 alpha/IC50 p110 delta” value is 150.
As for `CCc1nc2ccccc2n1-c1nc(N2CCOCC2)c2nc(CCN3CCOCC3(C)C)n(C)c2n1` [Example 535, 4-(2-(2-(2-ethyl-1H-benzo[d]imidazol-1-yl)-9-methyl-6-morpholino-9H-purin-8-yl)ethyl)-3,3-dimethylmorpholine], in assay [1], the IC50 came to 9.9 nM and the “IC50 p110 alpha/IC50 p110 delta” value came out at 49.
With `CCc1nc2ccccc2n1-c1nc(N2CCOCC2)c2nc(CC(=O)N3CCC(C(C)(C)O)CC3)sc2n1` [Example 549, 2-(5-(2-ethyl-1H-benzo[d]imidazol-1-yl)-7-morpholinothiazolo[5,4-d]pyrimidin-2-yl)-1-(4-(2-hydroxypropan-2-yl)piperidin-1-yl)ethanone], in assay [1], the IC50 is 9.4 nM and the “IC50 p110 alpha/IC50 p110 delta” value amounted to 14.
As to `CC(C)c1nc2ccccc2n1-c1nc(N2CCOCC2)c2nc(-c3cccnc3)n(C)c2n1` [Example 676, 4-(2-(2-isopropyl-1H-benzo[d]imidazol-1-yl)-9-methyl-8-(pyridin-3-yl)-9H-purin-6-yl)morpholine], in assay [1], the IC50 is 13.6 nM and the “IC50 p110 alpha/IC50 p110 delta” value turned out to be 14.
With `COc1cccc(-c2nc3c(N4CCOCC4)nc(-n4c(C(C)C)nc5ccccc54)nc3n2C)c1` [Example 683, 4-(2-(2-isopropyl-1H-benzo[d]imidazol-1-yl)-8-(3-methoxyphenyl)-9-methyl-9H-purin-6-yl)morpholine], in assay [1], the 50% inhibitory concentration (IC50) was found to be 31.7 nM and the “IC50 p110 alpha/IC50 p110 delta” value was 23.
Take `CCc1nc2ccccc2n1-c1nc(N2CCOCC2)c2nc(CN3CCC(C(C)(C)O)CC3)[nH]c2n1` [Example 701, 2-(1-((2-(2-ethyl-1H-benzo[d]imidazol-1-yl)-6-morpholino-9H-purin-8-yl)methyl)piperidin-4-yl)propan-2-ol]: the “IC50 p110 alpha/IC50 p110 delta” value in assay [1] was determined as 50.

A word on the IC50: it is the concentration that gives 50% inhibition.
